In patent US10226413B2, “Solution solubilization composition of insoluble material and method for solubilizing insoluble material using same” (Damy Chemical Co., Ltd., priority 2013, dated 2019):

Description: The turbidity of each lotion was measured using a spectrophotometer at 620 nm. A high turbidity of a liquid indicates cloudiness of the liquid and a low turbidity of a liquid indicates high transparency of the liquid. The turbidity (optical density) of the lotion was measured in the range of 0.01-1.0.
The amount of light passing through each solution was measured. The transmittance (T, %) of the solution for light was calculated as follows. First, the measured absorbance was substituted into -log t=A (absorbance, O.D). Since t is always not greater than 1, the transmittance (T) was calculated and expressed in percentage by T (%)=t×100. The transmittance is between 1 and 100%. The higher the transmittance, the higher the transparency. The transmittance of purified water was defined as 100%.

SMILES	solubilization in water by the composition (turbidity and transmittance)
C[C@@H]1O[C@@H](OC[C@H]2O[C@@H](Oc3c(-c4ccc(O)c(O)c4)oc4cc(O)cc(O)c4c3=O)[C@H](O)[C@@H](O)[C@@H]2O)[C@H](O)[C@H](O)[C@H]1O [rutin]	can solubilize
COC1=C(OC)C(=O)C(C/C=C(\C)CC/C=C(\C)CC/C=C(\C)CC/C=C(\C)CC/C=C(\C)CC/C=C(\C)CC/C=C(\C)CC/C=C(\C)CC/C=C(\C)CCC=C(C)C)=C(C)C1=O [ubiquinone]	can solubilize
